Results: patent publication US20080138397A1, “PROCESSES FOR TASTE-MASKING OF INHALED FORMULATIONS” (Aradigm Corporation, priority 2006, published 2008)

Key:
[1] = Human clinical trials of AERx-inhaled HCQ, pharmacokinetics blood sample analysis; format: in vivo; conditions: blood samples
Source text: Hydroxychloroquine or HCQ, known as a therapeutic for asthma and other respiratory diseases (U.S. Pat. No. 6,572,858), and administered by the inhalation route, is characterized by unpleasant taste. Formulation of HCQ, either singularly, or in combination, using one or more of the methods described above increases the therapeutic benefit of inhaled HCQ to treat asthma and other respiratory diseases. […] Thus, it would be an improvement to develop a formulation that provides a sustained release of HCQ in the lung, prolonging interaction of HCQ with the desired receptors in the lung tissue. Formulation strategies include encapsulation in liposomes or use of polymeric microspheres or nanospheres that slowly degrade and release HCQ. Other formulation strategies outlined previously can also be envisioned for such a formulation.

[2] = oral administration; extensive clearance via first pass metabolism; cited from earlier work
[3] = cited from earlier work

absorption from the lung [1] | SMILES | oral bioavailability [2] | half-life ([3]; in vivo) [h] | absorption time ([3]; inhalation delivery) | tolerability ([3]; inhalation delivery)
rapidly absorbed | CCN(CCO)CCCC(C)Nc1ccnc2cc(Cl)ccc12 (centres unmarked) [HCQ, Hydroxychloroquine] |  |  |  | 
 | CCCc1cc2c(s1)CN[C@@H]1CCc3cc(OC(C)=O)c(OC(C)=O)cc3[C@@H]21 [ABT-431] | less than 4% | 2 to 3 | less than 10 minutes | poor
